This is an account of results in US20250270159A1, “1-(CYCLOBUTANEMETHYLIDENE)-2, 4, 5-TRIMETHOXYBENZENE COMPOUND AND PREPARATION METHOD AND USE THEREOF” (CHENGDU XINRUI TAIKANG TECHNOLOGY CO., LTD., priority 2023, published 2025).

Series [1] deals with ischemic stroke induced by the filament technique in rats. In words: Acute phase of ischemic stroke induced by the filament technique (MCAO), short-term neurological deficit score. Type of series: in vivo. The note with it: for mNSS score / Garcia score: 24 h after MCAO modeling; for mNSS score: scale 0-18, higher worse; for Garcia score: scale 3-18, lower worse. The procedure:
Zea Longa score was used to determine whether the modeling was successful after 2 h of MCAO surgery, and rats with successful modeling were taken and randomly grouped for administering drugs.
The rats were randomly divided into a sham operation group (Sham group, given a blank emulsion with a volume equal to that of the high-dose CTMB group), a model group (Vehicle group, given a blank emulsion with a volume equal to that of the high-dose CTMB group), a low-dose CTMB group (CTMB-L group, 10 mg/kg), a high-dose CTMB group (CTMB-H group, 20 mg/kg), and an edaravone dexborneol injection concentrated solution group (EDB group, commercially available, 3 mg/kg). 10 rats were included in each group, which were administered by intraperitoneal injection. It should be noted that in the experiment, the mode of administration for rats was intraperitoneal injection, and a ratio of the effective dose of CTMB, the active ingredient in the emulsion injection, to the unit mass of the human body was within a range of 0.2 mg-4.0 mg/kg, which referred to the ratio of the effective dose of CTMB, the active ingredient in the emulsion injection, to the unit mass of the human body during intravenous infusion, which was extrapolated from the effective dose of the rats. Considering the different bioavailability, peak concentration, and peak time of the drug due to different species and different modes of administration, the effective dose of the active ingredient CTMB in the emulsion injection to the unit mass of human body was finally determined to be 0.2 mg-4.0 mg/kg through conversion.
The rats were fasted for 12 h before procedure, and the rats were anesthetized with 10% chloral hydrate (350 mg/kg, i.p.). The rats were fixed in the supine position, and the body temperature was maintained at about 37° C. For neck preparation, a median neck incision was made, the muscle and fascia were separated along the inner edge of the sternocleidomastoid muscle to expose the right side, the common carotid artery (CCA), external carotid artery (ECA), and internal carotid artery (ICA) were separated bluntly, and the lines were disposed of proximally in the CCA proximal end, ICA, and ECA for backup. The CCA proximal end and ECA were ligatured, and an arterial clip was used to temporarily close the ICA, then a small hole was poked at a position of CCA having about 4 mm from the bifurcation with a needle. The filament was inserted into the ICA through the CCA, the arterial clipped on ICA was loosened, and the filament was slowly advanced. When the mark on the filament reached the bifurcation and a slight resistance was felt, the thin wire at ICA was tightened, and saline was used to clean the wound and then suture was performed. The sham procedure was the same as the experimental group except that no filament was inserted. […]
Referring to the Zea Longa Neurologic Function Score (Longa EZ, Weinstein PR, Carlson S, Cummins R. Reversible middle cerebral artery occlusion without craniectomy in rats. Stroke. 1989 January; 20(1):84-91. doi: 10.1161/01.str.20.1.84.), rats were scored after 2 h of procedure when they were awake from anesthesia. […]
The neural function of the rats was comprehensively evaluated after 24 h of modeling using the modified mNSS score and Garcia score, and mNSS scoring criteria was shown in Table 3 and Garcia scoring criteria was shown in Table 4. The rats were evaluated for locomotion, sensation, and climbing, and symmetry of limbs. […]

Series [2] deals with Tyrosine hydroxylase (TH) protein expression. Kind of series: TH protein expression by immunohistochemistry in substantia nigra of PD mice. Type of series: in vivo, C57 mice. Particulars: Group D, CTMB 20 mg/kg ip, after 4 weeks of administration. The procedure: The mice were randomly divided into a sham operation group (group S, given a blank emulsion with a volume equal to that of the administered group), a model group (group M, given a blank emulsion with a volume equal to that of the administered group), a CTMB group (20 mg/kg, group D), and a levodopa group (levodopa: benserazide hydrochloride=4:1, 12 mg/kg, group L), each group included 10-12 mice, and all of them were administered intraperitoneally.
After completing the evaluation of motor function after 4 weeks of drug administration, the mice were deeply anesthetized, perfused with 20 mL of saline and 20 mL of 4% paraformaldehyde via the heart, and the brains were rapidly severed and extracted from the head, which were then preserved and fixed in 4% paraformaldehyde for 72 h after removal, and then embedded with paraffin to prepare the slices with a thickness of 4 μm for subsequent pathological and histological studies.
Tyrosine hydroxylase (TH) protein expression was detected by immunohistochemistry. […]

As to `COc1cc(OC)c(OC)cc1C=C1CCC1` [CTMB, 1-(cyclobutylidenemethyl)-2,4,5-trimethoxybenzene], the “toxic side effects associated with administration” value in series [1] (10 and 20 mg/kg ip, MCAO rats, acute phase test) was “No toxic side effects”. Further, in series [1] (CTMB-H 20 mg/kg ip), the mNSS score was 6.65 ± 2.30^##, ** and the Garcia score is 10.05 ± 1.81^##, **. Moreover, in series [1] (CTMB-L 10 mg/kg ip), the mNSS score is given as 6.88 ± 2.26^##, ** and the Garcia score is recorded as 9.65 ± 1.02^##, *. The “TH-positive neurons (a percentage of TH-positive neurons to uninjured side, %)” value in series [2] was 39.9 ± 12.1^###,***^, && %.
